# According to patent US9018238B2, “Inhibitor of casein kinase 1δ and casein kinase 1ε” (Pharmadesign, Inc., priority 2009, dated 2015):
# Legend:
# [1] = target: T1, human recombinant casein kinase 1δ (Homo sapiens, UniProt P48730); assay: Casein kinase 1δ inhibition assay (Z'-LYTE Ser/Thr 11 Peptide); type: biochemical; settings: 0.3 μg/ml compound, 3.0 μg/ml enzyme, 1.0 μM peptide, 20 μM ATP; 15 min pre-reaction, 2 hours; read-out: Casein kinase 1δ inhibitory rate
# T1 construct: purchased INVITROGEN PV3665
# Procedure: (§1) The activity of the present compound to inhibit casein kinase 1δ and casein kinase 1ε was measured using human recombinant casein kinase 1δ (INVITROGEN; Cat No. PV3665) or casein kinase 1ε (INVITROGEN; Cat No. PV3500) as an enzyme source, and using Z′-LYTE Ser/Thr 11 Peptide (INVITROGEN; Cat No. PV3671) as a phosphorylation substrate. The compositions (final concentrations) applied during the inhibitory activity measurement assays are as follows.
# Assay of Casein Kinase 1δ
# 3.0 μg/ml casein kinase 1δ, 0.3 μg/ml the present compound, 1.0 μM peptide, 20 μM ATP, 50 mM HEPES (pH 7.4), 10 mM MgCl2, 0.01% Brij-35, and 0.5% DMSO
# (§2) The present compound had previously been reacted with the enzyme at room temperature for 15 minutes. Two hours after completion of the reaction, the remaining phosphorylation activity was measured using Z′-LYTE Kinase Assay Kit-Ser/Thr 11 Peptide (INVITROGEN; Cat No. PV3670).
# (§3) The inhibitory rate of the present compound was calculated with respect to the phosphorylation activity of each of casein kinase 1δ and casein kinase 1ε in a case in which no such compounds were added. Tables 1 to 4 show the inhibitory rate (%) of each compound.
# [2] = target: T2, human recombinant casein kinase 1ε (Homo sapiens, UniProt P49674); assay: Casein kinase 1ε inhibition assay (Z'-LYTE Ser/Thr 11 Peptide); type: biochemical; settings: 0.3 μg/ml compound, 0.5 μg/ml enzyme, 1.0 μM peptide, 20 μM ATP; 15 min pre-reaction, 2 hours; read-out: Casein kinase 1ε inhibitory rate
# T2 construct: purchased INVITROGEN PV3500
# Procedure: as §1, with “follows. […]” for “follows.”
# as §2, §3
# rats = settings: subcutaneous administration; cited from earlier work
# [3] = system: human pancreatic cancer cell line transplanted into the subcutis of a mouse; settings: cited from earlier work
# [4] = system: N2A cells (N2A-APP695 cells); settings: N2A-APP695 cells excessively expressing constitutively active casein kinase 1ε; cited from earlier work
# [5] = system: human pancreatic cancer cell line; settings: human pancreatic cancer cell line in vitro; cited from earlier work
# T2 sequence (P49674 whole entry): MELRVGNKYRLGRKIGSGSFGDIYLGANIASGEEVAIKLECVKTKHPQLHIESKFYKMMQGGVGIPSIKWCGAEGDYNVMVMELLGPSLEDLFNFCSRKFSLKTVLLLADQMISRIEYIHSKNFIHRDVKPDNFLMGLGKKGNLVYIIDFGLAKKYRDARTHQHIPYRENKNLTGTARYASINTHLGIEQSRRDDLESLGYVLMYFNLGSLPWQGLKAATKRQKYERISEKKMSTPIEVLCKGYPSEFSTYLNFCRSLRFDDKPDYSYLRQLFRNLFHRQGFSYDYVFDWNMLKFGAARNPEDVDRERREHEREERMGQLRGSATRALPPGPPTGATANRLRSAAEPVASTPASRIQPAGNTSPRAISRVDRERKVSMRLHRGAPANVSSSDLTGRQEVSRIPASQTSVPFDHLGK
# T1 sequence (P48730 whole entry): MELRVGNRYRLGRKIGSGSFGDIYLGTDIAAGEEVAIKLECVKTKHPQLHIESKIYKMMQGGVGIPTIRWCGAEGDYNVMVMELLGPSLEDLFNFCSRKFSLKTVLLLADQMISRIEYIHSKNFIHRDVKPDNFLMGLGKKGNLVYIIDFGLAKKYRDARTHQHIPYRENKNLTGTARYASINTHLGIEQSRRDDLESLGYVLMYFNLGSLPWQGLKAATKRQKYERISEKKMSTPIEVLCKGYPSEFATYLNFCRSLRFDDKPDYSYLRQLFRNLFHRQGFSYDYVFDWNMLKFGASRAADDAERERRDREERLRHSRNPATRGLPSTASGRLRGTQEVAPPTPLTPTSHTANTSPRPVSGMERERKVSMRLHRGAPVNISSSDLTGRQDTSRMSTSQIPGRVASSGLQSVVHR
SMILES,inhibition at 0.3 µg/mL [1],inhibition at 0.3 µg/mL [2],further results
"Cn1cnc(/C=C2\N=C(c3cccs3)OC2=O)c1 [Example 10, 4-((1-Methyl-1H-imidazol-yl)methylene)-2-(2-thienyl)-5(4H)-oxazolone]",37%,18.1%,
"O=C1OC(c2cccs2)=N/C1=C\c1cncc(F)c1 [Example 3, 4-((5-Fluoro-3-pyridinyl)methylene)-2-(2-thienyl)-5(4H)-oxazolone]",87.4%,92.1%,
COc1ccc(/C=C2\N=C(c3cccs3)OC2=O)cc1 [4-((4-methoxyphenyl)methylene)-2-(2-thienyl)-5(4H)-oxazolone],96.1%,98.6%,
"COCc1ccc(/C=C2\N=C(c3cccs3)OC2=O)o1 [Example 12, 4-((5-Methoxymethyl-2-furanyl)methylene)-2-(2-thienyl)-5(4H)-oxazolone]",29%,9%,
O=C1OC(/C=C/c2ccccc2)=NC/1=C\c1cccnc1 [2-(2-phenylethenyl)-4-(3-pyridinylmethylene)-5(4H)-oxazolone],85%,83.4%,
"O=C1OC(c2cccs2)=N/C1=C\c1cccnc1F [Example 4, 4-((2-Fluoro-3-pyridinyl)methylene)-2-(2-thienyl)-5(4H)-oxazolone]",65.6%,39.2%,
"O=C1OC(c2cccs2)=N/C1=C\c1csnn1 [Example 14, 4-((1,2,3-Thiadiazol-4-yl)methylene)-2-(2-thienyl)-5(4H)-oxazolone]",32.2%,19.2%,
COc1ccc(C2=N/C(=C\c3cccnc3)C(=O)O2)cc1Br [2-(3-Bromo-4-methoxyphenyl)-4-(3-pyridinylmethylene)-5-(4H)-oxazolone],94.2%,99.4%,
"O=C1OC(c2cccs2)=N/C1=C\c1cc(Cl)c2c(c1)OCCO2 [4-((8-Chloro-2,3-dihydro-1,4-benzodioxin-6-yl)methylene)-2-(2-thienyl)-5(4H)-oxazolone]",76.7%,85.8%,
O=C1OC(c2cccs2)=N/C1=C\c1ccc([N+](=O)[O-])c(Cl)c1 [4-((3-Chloro-4-nitrophenyl)methylene)-2-(2-thienyl)-5(4H)-oxazolone],87.6%,97.6%,
Cc1cc(C2=N/C(=C\c3cccnc3)C(=O)O2)ccc1Br [2-(4-Bromo-3-methylphenyl)-4-(3-pyridinylmethylene)-5(4H)-oxazolone],83.2%,97.8%,
"Nc1nccc(-c2c(-c3ccc(F)cc3)ncn2C2CCCCC2)n1 [PF-670462, 4-[3-cyclohexyl-5-(4-fluoro-phenyl)-3H-imidazol-4-yl]-pyrimidin-2-ylamine]",,,phase of circadian rhythm (rats): significantly delayed
"COc1ccc(/C=C2\N=C(c3cccs3)OC2=O)cn1 [Example 5, 4-((6-Methoxy-3-pyridinyl)methylene)-2-(2-thienyl)-5(4H)-oxazolone]",86.3%,95.6%,
Nc1ccn([C@@H]2O[C@H](CO)[C@@H](O)C2(F)F)c(=O)n1 [gemcitabine],,,growth of tumor cells [3]: significant effect of suppressing the growth of tumor cells
"O=C1OC(c2cccs2)=N/C1=C\c1cc2c(cc1Cl)OCO2 [4-((6-Chloro-1,3-benzodioxol-5-yl)methylene)-2-(2-thienyl)-5(4R)-oxazolone]",74.3%,97%,
COC(=O)c1ccc(/C=C2\N=C(c3cccs3)OC2=O)cc1 [Methyl 4-((5-oxo-2-(2-thienyl)oxazol-4(5H)-ylidene)methyl) benzoate],86.8%,95.1%,
Cn1cc(/C=C2\N=C(c3cccs3)OC2=O)cn1 [4-((1-Methyl-1H-pyrazol-4-yl)methylene)-2-(2-thienyl)-5(4H)-oxazolone],73.6%,48.8%,
"COc1ccc(/C=C2\N=C(c3cccs3)OC2=O)c(C)n1 [Example 18, 4-((6-Methoxy-2-methyl-3-pyridinyl)methylene)-2-(2-thienyl)-5(4H)-oxazolone]",55.3%,32.8%,
"COc1cncc(/C=C2\N=C(c3cccs3)OC2=O)c1 [Example 2, 4-((5-Methoxy-3-pyridinyl)methylene)-2-(2-thienyl)-5(4H)-oxazolone]",91.1%,96.6%,
"O=C1OC(c2cccs2)=N/C1=C\c1cocn1 [Example 13, 4-((4-Oxazoyl)methylene)-2-(2-thienyl)-5(4H)-oxazolone]",67.9%,32%,
"COc1ccc(/C=C2\N=C(c3cccs3)OC2=O)c(Cl)n1 [Example 19, 4-((2-Chloro-6-methoxy-3-pyridinyl)methylene)-2-(2-thienyl)-5(4H)-oxazolone]",76.1%,52.5%,
"COc1cc(/C=C2\N=C(c3cccs3)OC2=O)ccn1 [Example 9, 4-((2-Methoxy-4-pyridinyl)methylene)-2-(2-thienyl)-5(4H)-oxazolone]",60.5%,93.8%,
COc1ccc(/C=C2\N=C(c3cccs3)OC2=O)cc1[N+](=O)[O-] [4-((4-Methoxy-3-nitrophenyl)methylene)-2-(2-thienyl)-5(4H)-oxazolone],91%,94.8%,
"COc1cncc(/C=C2\N=C(c3ccc(C)s3)OC2=O)c1 [Example 1, 4-((5-Methoxy-3-pyridinyl)methylene)-2-(5-methyl-2-thienyl)-5(4H)-oxazolone]",82%,97.1%,
COc1cc(OC)c(C=C2C(O)=Nc3ccccc32)c(OC)c1 [IC261],,,amount of Aβ40 [4]: decreased; amount of Aβ42 [4]: decreased; growth of tumor cells [3]: significant effect of suppressing the growth of tumor cells; cell growth [5]: suppression of the cell growth was observed
O=C1OC(c2cccs2)=N/C1=C\c1ccc([N+](=O)[O-])c(Br)c1 [4-((3-Bromo-4-nitrophenyl)methylene)-2-(2-thienyl)-5(4H)-oxazolone],85.9%,94.4%,
